Test results taken from patent US11691984B2, “Compounds and methods for DCAF-mediated protein degradation” (The Scripps Research Institute, priority 2018, dated 2023).

Columns and labels:
Format in all cases: cell-based
ACAT1 = target: T1, ACAT1 (Homo sapiens, UniProt P24752); experiment: Proteome-wide SILAC MS protein abundance in HEK293T cells: ACAT1; conditions: 24 hours
T1 construct: endogenous in cells; host or cells: HEK293T
T1 sequence (P24752 34-427): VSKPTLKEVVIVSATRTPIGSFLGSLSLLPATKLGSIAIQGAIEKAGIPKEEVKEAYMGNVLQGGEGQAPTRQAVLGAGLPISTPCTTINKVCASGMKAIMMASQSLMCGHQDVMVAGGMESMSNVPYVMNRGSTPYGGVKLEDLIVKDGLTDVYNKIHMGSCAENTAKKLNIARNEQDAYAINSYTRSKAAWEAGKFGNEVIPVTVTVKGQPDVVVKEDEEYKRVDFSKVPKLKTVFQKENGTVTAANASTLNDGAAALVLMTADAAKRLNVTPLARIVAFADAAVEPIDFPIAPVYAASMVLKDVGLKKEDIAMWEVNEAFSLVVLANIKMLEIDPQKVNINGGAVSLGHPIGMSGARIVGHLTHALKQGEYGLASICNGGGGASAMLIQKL
Experimental: (§1) HEK293T light and heavy SILAC cells were treated with DMSO and KB02-JQ1 (20 μM) or KB02-SLF (2 μM) for 24 hours, respectively. Light and heavy cells were collected and lysed in 1% NP-40 lysis buffer with complete protease inhibitor cocktail. Cells were vortexed and sonicated for 5 pulses (40%, 4). The supernatant was collected after centrifugation at 16,000 g for 10 min at 4° C. Protein concentration was determined by DC assay. 50 μg proteome from light and heavy samples were mixed, followed by methanol/chloroform precipitation. […] Next, the ratio of the peak areas under the light and heavy signals (signal-to-noise ratio>2.5) was calculated. […] In addition, peptides detected as ‘singletons,’ where only the heavy ion of a peptide pair was identified, but that cleared all other filtering parameters, were given a default assigned ratio of ‘20,’ which is defined as any measured ratio that is ≥20 and is the maximum ratio reported here.” The median SILAC ratios from quantified peptides were used as measures of protein abundance. The following quality filters were further applied to generate the plot: (1) proteins must have at least two quantified peptides; (2) proteins must be present in both replicates; (3) for each protein, the standard deviation of measured ratios of peptides must be <1.0.

BRD4 = target: T2, BRD4 (Homo sapiens, UniProt O60885); experiment: Proteome-wide SILAC MS protein abundance in HEK293T cells: BRD4; conditions: 24 hours
T2 construct: degradation of endogenous BRD4 in HEK293T cells; endogenous in cells; host or cells: HEK293T (A10, A16); HEK293 DCAF16+/+ and DCAF16-/- clones (A11)
Experimental: as §1

FLAG-FKBP12_NLS = FLAG-FKBP12_NLS (Homo sapiens, UniProt P62942); experiment: Polyubiquitination of immunoprecipitated FLAG-FKBP12_NLS in HEK293T cells; parameters: expressed in transfected cells; host or cells: HEK293T, (lentiviral pCDH-CMV-MCS-EF1-Puro); conditions: KB02-SLF 5 μM, MG132 10 μM, 2 hours
Experimental: Cells were collected and lysed in 1% NP-40 lysis buffer (25 mM Tris-HCl pH 7.4, 150 mM NaCl, 10% glycerol, 1% Nonidet P-40) with complete protease inhibitor cocktail (Roche). Cells were vortexed and sonicated for 5 pulses (40%, 4). The supernatant was collected after centrifugation at 16,000 g for 10 min at 4° C. Protein concentration was determined by DC assay (Bio-Rad). Protein lysate was heated at 95° C. for 5 min in 1× Laemmli sample buffer. Proteins were resolved by 12% or 14% Novex Tris-Glycine Mini Gels (Invitrogen) and transferred to polyvinylidene fluoride (PVDF) membrane (0.2 Bio-Rad). The membrane was blocked with 5% BSA in TBST buffer (0.1% Tween 20, 20 mM Tris-HCl 7.6, 150 mM NaCl) at room temperature for 1 h. The antibody was diluted with fresh 5% BSA in TBST buffer (1:10000 dilution for FLAG, HA and β-Actin, 1:1000 dilution for others) and incubated with membrane (1 h room temperature for FLAG, HA and β-Actin, overnight 4° C. for others). Membrane was washed three times with TBST buffer and incubated with secondary antibody (1:5000 dilution in 5% BSA in TBST) at room temperature for 1 h. Membrane was washed three times with TBST buffer. The chemiluminescence signal in membrane was recorded after developing in ECL or ECL plus western blotting detection reagent using CL-XPosure film (Thermo Scientific). Relative band intensities were quantified using ImageJ. […]

BRD2 = target: T3, BRD2 (Homo sapiens, UniProt P25440); experiment: Proteome-wide SILAC MS protein abundance in HEK293T cells: BRD2; conditions: KB02-JQ1 20 μM, 24 hours
T3 construct: endogenous in cells; host or cells: HEK293T
Experimental: as §1

Chain of FLAG-FKBP12_NLS (P62942 whole entry): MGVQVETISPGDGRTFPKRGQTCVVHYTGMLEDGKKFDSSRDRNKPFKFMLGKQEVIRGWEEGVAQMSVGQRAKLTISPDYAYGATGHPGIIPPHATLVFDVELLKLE
T3 sequence (P25440 whole entry): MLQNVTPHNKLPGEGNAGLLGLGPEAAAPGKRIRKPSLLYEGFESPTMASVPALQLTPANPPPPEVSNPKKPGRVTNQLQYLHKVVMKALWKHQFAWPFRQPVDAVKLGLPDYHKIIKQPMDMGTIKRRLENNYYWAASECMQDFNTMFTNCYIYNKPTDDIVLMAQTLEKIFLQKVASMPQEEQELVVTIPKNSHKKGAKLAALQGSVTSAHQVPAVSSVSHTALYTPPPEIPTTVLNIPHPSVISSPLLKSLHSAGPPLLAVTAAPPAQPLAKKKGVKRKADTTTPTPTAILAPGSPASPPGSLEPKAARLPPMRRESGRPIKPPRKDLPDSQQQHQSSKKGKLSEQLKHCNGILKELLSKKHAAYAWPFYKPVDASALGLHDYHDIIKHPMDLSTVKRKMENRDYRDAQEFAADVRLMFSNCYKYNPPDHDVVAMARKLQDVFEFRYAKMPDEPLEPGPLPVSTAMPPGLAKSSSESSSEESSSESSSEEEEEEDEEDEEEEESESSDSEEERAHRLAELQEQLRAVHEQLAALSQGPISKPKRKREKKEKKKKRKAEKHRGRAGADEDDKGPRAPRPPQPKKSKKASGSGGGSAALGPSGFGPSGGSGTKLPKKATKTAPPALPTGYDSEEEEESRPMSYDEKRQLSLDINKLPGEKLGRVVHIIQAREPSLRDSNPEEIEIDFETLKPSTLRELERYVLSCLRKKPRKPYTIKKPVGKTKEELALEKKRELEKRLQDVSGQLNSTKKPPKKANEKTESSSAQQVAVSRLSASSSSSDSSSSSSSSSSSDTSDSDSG

ACAT1 abundance (MS-based proteomics) (ACAT1; KB02-JQ1 20 μM) | BRD2 abundance (MS-based proteomics) (BRD2) | BRD4 abundance (MS-based proteomics) (BRD4; KB02-JQ1 20 μM) | Compound | ACAT1 abundance (MS-based proteomics) (ACAT1; KB02-SLF 2 μM) | BRD4 abundance (MS-based proteomics) (BRD4; KB02-SLF 2 μM) | polyubiquitination of FKBP12_NLS after shRNA knockdown of DCAF16 (FLAG-FKBP12_NLS) | polyubiquitination of nuclear FKBP12_NLS (FLAG-FKBP12_NLS)
 |  |  | CCC(C)(C)C(=O)C(=O)N1CCCC[C@H]1C(=O)O[C@H](CCc1ccc(OC)c(OC)c1)c1cccc(NC(=O)CCOCCOCCNC(=O)COc2ccc3c(c2)CCCN3C(=O)CCl)c1 [KB02-SLF, (R)-1-(3-(3-(2-(2-(2-((1-(2-chloroacetyl)-1,2,3,4-tetrahydroquinolin-6-yl)oxy)acetamido)ethoxy)ethoxy)propanamido)phenyl)-3-(3,4-dimethoxyphenyl)propyl (S)-1-(3,3-dimethyl-2-oxopentanoyl)piperidine-2-carboxylate] | reductions in ACAT1 | not BRD4 | abolished KB02-SLF-induced polyubiquitination of FKBP12_NLS | induced polyubiquitination of nuclear FKBP12_NLS
substantially decreased abundance | appeared to be stabilized | selective degradation of BRD4 | Cc1sc2c(c1C)C(c1ccc(Cl)cc1)=N[C@@H](CC(=O)NCCOCCOCCNC(=O)COc1ccc3c(c1)CCCN3C(=O)CCl)c1nnc(C)n1-2 [KB02-JQ1, (S)-2-((1-(2-chloroacetyl)-1,2,3,4-tetrahydroquinolin-6-yl)oxy)-N-(2-(2-(2-(2-(4-(4-chlorophenyl)-2,3,9-trimethyl-6H-thieno[3,2-f][1,2,4]triazolo[4,3-a][1,4]diazepin-6-yl)acetamido)ethoxy)ethoxy)ethyl)acetamide] |  |  |  | 
